Series [1] relates to isolated guinea-pig atria. Kind of series: Chronotropic activity in the isolated guinea-pig atrium (spontaneous beating rate of right atrium). Conditions: 15% increase of spontaneous beating rate of right atrium; cumulative addition; 30°C. The protocol:
Male Hartley guinea-pig weighing about 500 g was sacrificed and the right atrium was removed. The atrium was mounted vertically in an organ bath containing Krebs-Henseleit solution. The bath medium was maintained at 30°C and was equilibrated with a gas mixture consisting of 95% 0₂ and 5% CO₂. A restintion of 0.5 g was applied. The spontaneous beating rates for the right atrium were recorded by using a heart rate counter. The test compounds were added cumulatively to the bath. ED₁₅ values representing the amount of the compound which produced 15% increases of the spontaneous beating rates for the right atria were caluculated on the basis of the results obtained.

Series [2] relates to isolated dog mesenteric artery. Kind of series: Relaxation activity in the isolated dog mesenteric artery (pre-contracted with prostaglandin F2α). Conditions: for EC50: Canis lupus familiaris, 50% of maximal relaxation (10⁻⁴M papaverine), pre-contracted with prostaglandin F₂α 3 × 10⁻⁶ M, 37°C, read-out: relaxation activity in the isolated dog mesenteric artery ED₅₀; for relative effectiveness of the compounds to reference B: dog mesenteric artery ED₅₀ relative to reference compound B (propentofylline) = 1. The protocol:
The mesenteric arteries were isolated from mongrel dogs of either sex weighing about 10kg. Each helical strip (2 mm in width and 20 mm in length) was mounted vertically in an organ bath containing Krebs-Henseleit solution. The bath medium was maintained at 37 °C and was equilibrated with a gas mixture consisting of 95% O₂ and 5% […]. A resting tension of 1.0 g was applied and the response was recorded isometrically. The preparations were pre-contracted with prostaglandin F₂ α (3 × 10⁻⁶ M) and the smooth muscle relaxations induced by the test compounds were recorded. The test compounds were added cumulatively to the bath. ED₅₀ values representing the amount of the compound which produces 50% relaxations of the maximal relaxations (10 ⁻⁴M papaverine) were caluculated on the basis of the results obtained above.

The subject of series [3] is complete cerebral ischemia in mice. Put plainly: Protective effect on complete cerebral ischemia in mice (gasping duration after decapitation). Format: in vivo. Conditions: 50 mg/kg, p.o., 30 minutes before decapitation; male ddY mice. The protocol: Male ddY mice weighing about 25 g were used. Complete cerebral ischemia was produced by the amputation of the cervix between the medulla oblongata and the spinal cord. The time between decapitation and the last gasp was recorded as gasping duration. Test compounds were suspended with 0.5% carboxymethylcellulose except propentofylline which was dissolved in distilled H₂O, and then administered orally 30 minutes before the decapitation. The gasping duration was evaluated at the dose of 50 mg/kg.

Series [4] concerns isolated guinea-pig trachea. Put plainly: Relaxation activity in the isolated guinea-pig trachea (resting tonus, organ bath). The settings on record: for EC50: Cavia porcellus, 50% of maximal relaxation (10⁻⁶M isoproterenol), resting tonus, cumulative addition, 37°C, read-out: relaxation activity in the isolated guinea-pig trachea ED₅₀; for relative effectiveness of the compounds to reference A: guinea-pig trachea ED₅₀ relative to reference compound A (theophylline) = 1. The protocol: Male Hartley guinea-pigs weighing about 500 g were sacrificed and the trachea were removed. The tracheal chain strips were made and the preparations were mounted vertically in an organ bath containing Locke-Ringer solution. The bath medium was maintained at 37°C and was equilibrated with a gas mixture consisting of 95% O₂ and 5% CO₂. Relaxation activities of the test compounds on the resting tonus of the preparations were recorded isotonically. The test compounds were added cumulatively to the bath. ED₅₀ values representing the amount of the compound tested which produces 50% relaxations of the maximal relaxations (10⁻⁶M isoproterenol) were calculated on the basis of the results obtained above.

For the molecule `Cn1cnc2c1c(=O)n(CCCCC1(C)OCCO1)c(=O)n2C1CC1` [Example 38, 3-Cyclopropyl-3,7-dihydro7-methyl-1-[4-(2-methyl-1,3-dioxolan-2-yl)butyl]-1H-purine-2,6-dione], in series [1], the “chronotropic activity in the isolated guinea-pig atria ED₁₅” value (“chronotropic activity” for short) is listed as greater than 10 × 10⁻⁵ M.

With `CCCn1cnc2c1c(=O)n(CCCCC(C)=O)c(=O)n2C` [Reference compound B, propentofylline, reference compound], in series [2], the EC50 was 38 µM and the “relative effectiveness of the compounds to reference B” value is listed as 1. In addition, the “protective effect on complete cerebral iscehemia in mice gasping duration” value (shortened to “protective effect”) in series [3] was 106.4%. The “chronotropic activity” value in series [1] came out at 5.1 × 10⁻⁵ M.

As for `CC(=O)CCCCn1cnc2c1c(=O)n(C)c(=O)n2C1CC1` [Example 25, 3-Cyclopropyl-3,7-dihydro-1-methyl-7-(5-oxohexyl)-1H-purine-2,6-dione], in series [1], the “chronotropic activity” value is greater than 10 × 10⁻⁵ M.

On to `CCCCn1c(=O)c2c(ncn2CC2(C)OCCO2)n(C2CC2)c1=O` [Example 40, 1-n-Butyl-3-cyclopropyl-3,7-dihydro-7-[(2-methyl-1,3-dioxolan-2-yl)methyl]-1H-purine-2,6-dione], for which, in series [4], the EC50 stood at 16 µM and the “relative effectiveness of the compounds to reference A” value worked out at 1.8. In addition, the “chronotropic activity” value in series [1] was greater than 10 × 10⁻⁵ M.

In the case of `CC(=O)Cn1c(=O)c2c(ncn2C)n(C2CC2)c1=O` [Example 3, 3-Cyclopropyl-3,7-dihydro-7-methyl-1-(2-oxopropyl)-1H-purine-2,6-dione], in series [1], the “chronotropic activity” value was greater than 10 × 10⁻⁵ M.

Regarding `CCCCn1cnc2c1c(=O)n(CCCCC(C)=O)c(=O)n2C1CC1` [Example 15, 7-n-Butyl-3-cyclopropyl-3,7-dihydro-1-(5-oxohexyl)-1H-purine-2,6-dione], in series [4], the EC50 is 18 µM and the “relative effectiveness of the compounds to reference A” value is 1.6. In series [2], the EC50 is 36 µM and the “relative effectiveness of the compounds to reference B” value is 1.1. Also, in series [3], the “protective effect” value is on record as 112.3%. In addition, in series [1], the “chronotropic activity” value is listed as greater than 10 × 10⁻⁵ M.

`CCCCn1c(=O)c2c(ncn2CC(C)=O)n(C2CC2)c1=O` [Example 30, 1-n-Butyl-3-cyclopropyl-3,7-dihydro-7-(2-oxopropyl)-1H-purine-2,6-dione]: in series [4], the EC50 came to 1.5 µM and the “relative effectiveness of the compounds to reference A” value is recorded as 19. For the same molecule, in series [2], the EC50 came to 0.56 µM and the “relative effectiveness of the compounds to reference B” value is reported as 68. For the same molecule, the “chronotropic activity” value in series [1] is reported as greater than 10 × 10⁻⁵ M.

Regarding `CCn1c(=O)c2c(ncn2CC(C)=O)n(C2CC2)c1=O` [Example 26, 3-Cyclopropyl-1-ethyl-3,7-dihydro-7-(2-oxopropyl)-1H-purine-2,6-dione], in series [4], the EC50 was 14 µM and the “relative effectiveness of the compounds to reference A” value came to 2.0. In series [2], the EC50 was 10 µM and the “relative effectiveness of the compounds to reference B” value turned out to be 3.8.

As to `CCCCCn1cnc2c1c(=O)n(CCCCC(C)=O)c(=O)n2C1CC1` [Example 16, 3-Cyclopropyl-3,7-dihydro-1-(5-oxohexyl)-7-n-pentyl-1H-purine-2,6-dione], in series [4], the EC50 stood at 23 µM and the “relative effectiveness of the compounds to reference A” value stood at 1.2. Further, the “protective effect” value in series [3] is on record as 107.8%. Further, in series [1], the “chronotropic activity” value was greater than 10 × 10⁻⁵ M.

As to `CCCCCCn1c(=O)c2c(ncn2CC(C)=O)n(C2CC2)c1=O` [Example 34, 3-Cyclopropyl-1-n-hexyl-3,7-dihydro-7-(2-oxopropyl)-1H-purine-2,6-dione], in series [4], the EC50 came out at 6 µM and the “relative effectiveness of the compounds to reference A” value is given as 4.7. Besides, in series [2], the EC50 came to 0.64 µM and the “relative effectiveness of the compounds to reference B” value turned out to be 59. Moreover, the “chronotropic activity” value in series [1] is greater than 10 × 10⁻⁵ M.

`Cn1c(=O)c2[nH]cnc2n(C)c1=O` [Reference compound A, theophylline, reference compound]: in series [4], the EC50 is 28 µM and the “relative effectiveness of the compounds to reference A” value came out at 1. The “chronotropic activity” value in series [1] was 7.6 × 10⁻⁵ M.

As for `CC(=O)CCCCn1c(=O)c2c(ncn2C)n(C2CC2)c1=O` [Example 6, 3-Cyclopropyl-3,7-dihydro-7-methyl-1-(5-oxohexyl)-1H-purine-2,6-dione], in series [2], the EC50 came to 15 µM and the “relative effectiveness of the compounds to reference B” value stood at 2.5. Besides, the “chronotropic activity” value in series [1] was greater than 10 × 10⁻⁵ M.

Take `CCCCCCn1cnc2c1c(=O)n(CCCCC(C)=O)c(=O)n2C1CC1` [Example 17, 3-Cyclopropyl-7-n-hexyl-3,7-dihydro-1-(5-oxohexyl)-1H-purine-2,6-dione]: in series [4], the EC50 is 11 µM and the “relative effectiveness of the compounds to reference A” value is on record as 2.5. Also, in series [2], the EC50 turned out to be 18 µM and the “relative effectiveness of the compounds to reference B” value is listed as 2.1. In addition, the “protective effect” value in series [3] was 106.8%. Also, in series [1], the “chronotropic activity” value is greater than 10 × 10⁻⁵ M.
